Ends that are not written are not given here.

This experiment has as its system AeaETHRs. The experiment in a line: flash luminescence. Conditions: peptides with related sequences. Type of experiment: cell-based, Aedes aegypti.
Regarding “corazonin (QTFQYSRGWTN; ends and bridges not checked; UniProt Q26377 20-30, looked up)”, the “activity when tested at 10 μM” value is “inactive”.
With “ghrelin (GSSFLSPEHQRVQQRKESKKPPAKLQPR; ends and bridges not checked; UniProt Q9UBU3 24-51, looked up)” the entry was “inactive”.
With FMRFamide the entry was “inactive”.

Source of the values: article PMC2851739 (General and comparative endocrinology, 2009).
